Test results reported in patent publication EP1078634A1, “Medicament for inhibiting NF-kB” (Max Zeller Söhne AG, priority 1999, dated 2001).

Tests used:
NF-kB = NF-kB binding to DNA, electrophoretic mobility shift assay (EMSA) with Jurkat T cells; assay type: cell-based; conditions: TNF-a stimulation
Excerpt: Die in Beispiel 2 hergestellten Substanzen wurden in zellfreien und zellulären Testsystemen nach bekannten Methoden auf NF-kB hemmende Wirkung geprüft. […] Bestimmt wurde die in-vivo und die in-vitro NF-kB Bindung an DNA durch Messung der elektrophoretischen Mobilitätsverschiebung.
Die in vivo Bindung wurde mit Jurkat T-Zellen durchgeführt. Die Zellen wurden während einer Stunde mit verschiedenen Konzentrationen der verschiedenen Extrakte inkubiert und anschliessend mit TNF-a während einer Stunde stimuliert. Total-Protein-Extrakte der Zellen wurden gewonnen und in einem Assay auf elektrophoretische Mobilitätsverschiebung (electrophoretic mobility shift asasy, EMSA) auf NF-kB-bindende Aktivität geprüft.
Die in vitro Bindung wurde ebenfalls mit Jurkat T-Zellen geprüft. Zellextrakte von stimulierten wie unstimulierten Zellen wurden gewonnen. Gleiche Proteinmengen (10-20 µg) wurden 2 Stunden mit Konzentrationsreihen der verschiedenen Isatis-Extrakte inkubiert und schliesslich auf elektrophoretische Mobilitätsverschiebung (EMSA) analysiert.

COX-2 = target: T1, COX-2 (Homo sapiens, UniProt P35354); assay: COX-2 inhibition in LPS-stimulated Mono Mac 6 cells (Keto PGF 1α ELISA, method of Berg et al.); assay type: cell-based; conditions: COX-2 versus COX-1, in words
T1 construct: Dabei wurden Mono Mac 6-Zellen mit unterschiedlichen Konzentrationen der Testsubstanzen während 30 min inkubiert; endogenous in cells; host or cells: Mono Mac 6 cells, LPS-stimulated
T1 sequence (P35354 18-604): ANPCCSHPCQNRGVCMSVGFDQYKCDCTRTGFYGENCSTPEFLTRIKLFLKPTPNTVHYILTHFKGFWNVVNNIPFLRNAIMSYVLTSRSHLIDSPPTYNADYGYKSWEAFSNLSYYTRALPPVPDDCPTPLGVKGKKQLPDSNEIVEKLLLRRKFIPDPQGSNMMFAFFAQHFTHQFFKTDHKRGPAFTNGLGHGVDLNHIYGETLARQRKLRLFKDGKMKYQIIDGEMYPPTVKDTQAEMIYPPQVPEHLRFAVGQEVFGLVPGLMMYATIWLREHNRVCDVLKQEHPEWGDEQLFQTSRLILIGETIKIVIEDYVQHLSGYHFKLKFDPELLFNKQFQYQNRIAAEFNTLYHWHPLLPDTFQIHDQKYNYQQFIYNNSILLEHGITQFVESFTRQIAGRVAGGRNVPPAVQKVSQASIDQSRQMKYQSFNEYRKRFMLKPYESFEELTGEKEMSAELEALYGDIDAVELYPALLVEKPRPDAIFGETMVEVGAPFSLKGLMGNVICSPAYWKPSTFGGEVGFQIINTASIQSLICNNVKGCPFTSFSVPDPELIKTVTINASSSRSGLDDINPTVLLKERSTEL
Method: Die Bestimmung der COX-2 inhibitorischen Wirkung der gemäss Beispiel 2 synthetisierten Verbindungen wurde mit Mono Max 6-Zellen nach der Methode von Berg et al., J. Pharmaco. Toxicol.
Dabei wurden Mono Mac 6-Zellen mit unterschiedlichen Konzentrationen der Testsubstanzen während 30 min inkubiert, anschliessend Lipopolysaccharid (LPS, 100 ng/ml) zupipettiert und während weiteren 6 Stunden inkubiert. Anschliessend wurde Arachidonsäure zugegeben (Endkonz. 30 µM), während 15 Min. inkubiert und das gebildete Keto PGF 1α mittels ELISA bestimmt.
In einer Variante wurden Testsubstanz und LPS zeitgleich eingesetzt. Die Messung der COX1 Hemmung erfolgte in HEL-Zellen nach der Methode von Berg et al., J. Pharmacol. Toxicol. […] Dabei wurden HEL Zellen mit unterschiedlichen Konzentrationen der Testsubstanzen während 30 Min. inkubiert, anschliessend Arachidonsäure zugesetzt (Endkonz. 30 uM), während 15 Min. inkubiert und das gebildete Tromboxan B2 mittels ELISA gemessen.

Structure (SMILES)	NF-kB: Grenzkonzentration, bei der eben noch ein Hemmeffekt im EMSA feststellbar ist (NF-kB)	präferentielle Hemmung der induzierbaren COX-2 (COX-2)
O=C1c2ccccc2-n2c1nc1ccc(Cl)cc1c2=O [Verbindung 5]	50 µM/Liter	–
O=C1c2cc(Cl)ccc2-n2c1nc1ccccc1c2=O [Verbindung 10]	5 µM/Liter	–
Nc1ccc2nc3n(c(=O)c2c1)-c1ccc(F)cc1C3=O [Verbindung 20]	5 µM/Liter	–
Cc1cc(C)c2nc3n(c(=O)c2c1)-c1ccc(F)cc1C3=O [Verbindung 24]	>100 µM/Liter	–
CN1CCN(c2ccc3c(=O)n4c(nc3c2)C(=O)c2cc(F)ccc2-4)CC1 [Verbindung 32]	10 µM/Liter	–
CCOC(=O)c1ccc2c(c1)C(=O)c1nc3ccccc3c(=O)n1-2 [Verbindung 37]	>100 µM/Liter	–
CC1CN(c2cc3c(cc2F)C(=O)c2nc4ccccc4c(=O)n2-3)CCN1C(=O)OC(C)(C)C (stereo not drawn) [Verbindung 42]	>100 µM/Liter	–
CCCCCCCCS(=O)(=O)c1ccc2c(c1)C(=O)c1nc3c(OC)cccc3c(=O)n1-2 [Verbindung 69]	>100 µM/Liter	–
O=C1c2cc(Cl)ccc2-n2c1nc1cc(N3CCOCC3)ccc1c2=O [Verbindung 86]	0,5 µM/Liter	deutliche präferentielle Hemmung der induzierbaren COX-2
CN(CC(=O)O)c1ccc2c(=O)n3c(nc2c1)C(=O)c1cc(Cl)ccc1-3 [Verbindung 99]	1 µM/Liter	–
CN(CCO)c1ccc2c(=O)n3c(nc2c1)C(=O)c1cc(OC(F)(F)F)ccc1-3 [Verbindung 110]	5 µM/Liter	–
